Our source for the ED50 values is US5591714A, “Derivatives of A82846” (priority 1994, dated 1997).

Holding throughout (test): In vivo activity, experimentally infected mice (ED50)
For one test, the system named is Streptococcus pyogenes. Particulars: Streptococcus pyogenes infection; doses administered subcutaneously to mice 1 and 4 hours postinfection.
For another test, the system named is Streptococcus pneumoniae. Particulars: Streptococcus pneumoniae infection; doses administered subcutaneously to mice 1 and 4 hours postinfection.
Another test concerns Staphylococcus aureus. Particulars: Staphylococcus aureus infection; doses administered subcutaneously to mice 1 and 4 hours postinfection.

Consider `CCCCCCCCN(C)[C@H](CC(C)C)C(=O)N[C@H]1C(=O)N[C@@H](CC(N)=O)C(=O)N[C@H]2C(=O)N[C@H]3C(=O)N[C@H](C(=O)N[C@H](C(=O)O)c4cc(O)cc(O)c4-c4cc3ccc4O)[C@H](O[C@H]3C[C@](C)(N)[C@@H](O)[C@H](C)O3)c3ccc(cc3)Oc3cc2cc(c3O[C@@H]2O[C@H](CO)[C@@H](O)[C@H](O)[C@H]2O[C@H]2C[C@](C)(N)[C@@H](O)[C@H](C)O2)Oc2ccc(cc2Cl)[C@H]1O` [Compound 2], for which the ED50 is 0.79 mg/kg/2 in the test with Streptococcus pyogenes, 1.25 mg/kg/2 in the test on Streptococcus pneumoniae and above 5.0 mg/kg/2 in the test on Staphylococcus aureus.
The matching figures for `CCCCCN[C@@]1(C)C[C@H](O[C@H]2[C@H](Oc3c4cc5cc3Oc3ccc(cc3Cl)[C@@H](O)[C@@H](NC(=O)[C@@H](CC(C)C)NC)C(=O)N[C@@H](CC(N)=O)C(=O)N[C@H]5C(=O)N[C@H]3C(=O)N[C@H](C(=O)N[C@H](C(=O)O)c5cc(O)cc(O)c5-c5cc3ccc5O)[C@H](O[C@H]3C[C@](C)(N)[C@@H](O)[C@H](C)O3)c3ccc(cc3)O4)O[C@H](CO)[C@@H](O)[C@@H]2O)O[C@@H](C)[C@@H]1O` [Compound 5]: 0.17 mg/kg/2, 0.1 mg/kg/2 and 0.92 mg/kg/2.
The matching figures for `CCCCCN[C@@]1(C)C[C@H](O[C@H]2[C@H](Oc3c4cc5cc3Oc3ccc(cc3Cl)[C@@H](O)[C@@H](NC(=O)[C@@H](CC(C)C)N(C)CCCCC)C(=O)N[C@@H](CC(N)=O)C(=O)N[C@H]5C(=O)N[C@H]3C(=O)N[C@H](C(=O)N[C@H](C(=O)O)c5cc(O)cc(O)c5-c5cc3ccc5O)[C@H](O[C@H]3C[C@](C)(NCCCCC)[C@@H](O)[C@H](C)O3)c3ccc(cc3)O4)O[C@H](CO)[C@@H](O)[C@@H]2O)O[C@@H](C)[C@@H]1O` [Compound 8]: 2.69 mg/kg/2, above 4.0 mg/kg/2 and above 4.0 mg/kg/2.
In turn, `CCCCCCCCCCN[C@@]1(C)C[C@H](O[C@H]2[C@H](Oc3c4cc5cc3Oc3ccc(cc3Cl)[C@@H](O)[C@@H](NC(=O)[C@@H](CC(C)C)NC)C(=O)N[C@@H](CC(N)=O)C(=O)N[C@H]5C(=O)N[C@H]3C(=O)N[C@H](C(=O)N[C@H](C(=O)O)c5cc(O)cc(O)c5-c5cc3ccc5O)[C@H](O[C@H]3C[C@](C)(N)[C@@H](O)[C@H](C)O3)c3ccc(cc3)O4)O[C@H](CO)[C@@H](O)[C@@H]2O)O[C@@H](C)[C@@H]1O` [Compound 9] yielded an ED50 in the test with Streptococcus pyogenes of 0.68 mg/kg/2.
For the compound `CN[C@H](CC(C)C)C(=O)N[C@H]1C(=O)N[C@@H](CC(N)=O)C(=O)N[C@H]2C(=O)N[C@H]3C(=O)N[C@H](C(=O)N[C@H](C(=O)O)c4cc(O)cc(O)c4-c4cc3ccc4O)[C@H](O[C@H]3C[C@](C)(N)[C@@H](O)[C@H](C)O3)c3ccc(cc3)Oc3cc2cc(c3O[C@@H]2O[C@H](CO)[C@@H](O)[C@H](O)[C@H]2O[C@H]2C[C@](C)(NCc3ccc(Cl)cc3)[C@@H](O)[C@H](C)O2)Oc2ccc(cc2Cl)[C@H]1O` [Compound 20], the ED50 with Streptococcus pyogenes is listed as 0.15 mg/kg/2; in the test on Streptococcus pneumoniae it was 0.23 mg/kg/2; in the test with Staphylococcus aureus it was above 2.0 mg/kg/2.
With `CN[C@H](CC(C)C)C(=O)N[C@H]1C(=O)N[C@@H](CC(N)=O)C(=O)N[C@H]2C(=O)N[C@H]3C(=O)N[C@H](C(=O)N[C@H](C(=O)O)c4cc(O)cc(O)c4-c4cc3ccc4O)[C@H](O[C@H]3C[C@](C)(NCCc4ccccc4)[C@@H](O)[C@H](C)O3)c3ccc(cc3)Oc3cc2cc(c3O[C@@H]2O[C@H](CO)[C@@H](O)[C@H](O)[C@H]2O[C@H]2C[C@](C)(N)[C@@H](O)[C@H](C)O2)Oc2ccc(cc2Cl)[C@H]1O` [Compound 25], the ED50 with Streptococcus pyogenes is on record as 0.50 mg/kg/2; in the test on Streptococcus pneumoniae, 0.76 mg/kg/2; in the test with Staphylococcus aureus, above 1.0 mg/kg/2.
The matching figures for `CN[C@H](CC(C)C)C(=O)N[C@H]1C(=O)N[C@@H](CC(N)=O)C(=O)N[C@H]2C(=O)N[C@H]3C(=O)N[C@H](C(=O)N[C@H](C(=O)O)c4cc(O)cc(O)c4-c4cc3ccc4O)[C@H](O[C@H]3C[C@](C)(N)[C@@H](O)[C@H](C)O3)c3ccc(cc3)Oc3cc2cc(c3O[C@@H]2O[C@H](CO)[C@@H](O)[C@H](O)[C@H]2O[C@H]2C[C@](C)(NCC(c3ccccc3)c3ccccc3)[C@@H](O)[C@H](C)O2)Oc2ccc(cc2Cl)[C@H]1O` [Compound 26]: 0.48 mg/kg/2, 0.47 mg/kg/2 and above 3.0 mg/kg/2.
The matching figures for `CCCCCN[C@@]1(C)C[C@H](O[C@H]2[C@H](Oc3c4cc5cc3Oc3ccc(cc3Cl)[C@@H](O[C@H]3C[C@](C)(N)[C@@H](O)[C@H](C)O3)[C@@H]3NC(=O)[C@H](NC(=O)[C@@H]5NC(=O)[C@H](CC(N)=O)NC(=O)[C@H](NC(=O)[C@@H](CC(C)C)N(C)CCCCC)[C@H](O)c5ccc(c(Cl)c5)O4)c4ccc(O)c(c4)-c4c(O)cc(O)cc4[C@@H](C(=O)O)NC3=O)O[C@H](CO)[C@@H](O)[C@@H]2O)O[C@@H](C)[C@@H]1O` [Compound 36]: 0.38 mg/kg/2, 0.29 mg/kg/2 and 1.0 mg/kg/2.
As for `CCCCCN[C@@]1(C)C[C@H](O[C@H]2[C@H](Oc3c4cc5cc3Oc3ccc(cc3Cl)[C@@H](O[C@H]3C[C@](C)(NCCCCC)[C@@H](O)[C@H](C)O3)[C@@H]3NC(=O)[C@H](NC(=O)[C@@H]5NC(=O)[C@H](CC(N)=O)NC(=O)[C@H](NC(=O)[C@@H](CC(C)C)N(C)CCCCC)[C@H](O)c5ccc(c(Cl)c5)O4)c4ccc(O)c(c4)-c4c(O)cc(O)cc4[C@@H](C(=O)O)NC3=O)O[C@H](CO)[C@@H](O)[C@@H]2O)O[C@@H](C)[C@@H]1O` [Compound 37], the ED50 is reported as 1.09 mg/kg/2 in the test on Streptococcus pyogenes, 0.88 mg/kg/2 with Streptococcus pneumoniae and above 5.0 mg/kg/2 in the test with Staphylococcus aureus.
Consider `CCCCCCCCN(C)[C@H](CC(C)C)C(=O)N[C@H]1C(=O)N[C@@H](CC(N)=O)C(=O)N[C@H]2C(=O)N[C@H]3C(=O)N[C@H](C(=O)N[C@H](C(=O)O)c4cc(O)cc(O)c4-c4cc3ccc4O)[C@H](O[C@H]3C[C@](C)(N)[C@@H](O)[C@H](C)O3)c3ccc(c(Cl)c3)Oc3cc2cc(c3O[C@@H]2O[C@H](CO)[C@@H](O)[C@H](O)[C@H]2O[C@H]2C[C@](C)(N)[C@@H](O)[C@H](C)O2)Oc2ccc(cc2Cl)[C@H]1O` [Compound 39], for which the ED50 in the test on Streptococcus pyogenes was determined as 0.18 mg/kg/2; in the test on Streptococcus pneumoniae it was 0.34 mg/kg/2; with Staphylococcus aureus, 1.22 mg/kg/2.
The matching figures for `CCCCCCCCN[C@@]1(C)C[C@H](O[C@H]2[C@H](Oc3c4cc5cc3Oc3ccc(cc3Cl)[C@@H](O[C@H]3C[C@](C)(NCCCCCCCC)[C@@H](O)[C@H](C)O3)[C@@H]3NC(=O)[C@H](NC(=O)[C@@H]5NC(=O)[C@H](CC(N)=O)NC(=O)[C@H](NC(=O)[C@@H](CC(C)C)NC)[C@H](O)c5ccc(c(Cl)c5)O4)c4ccc(O)c(c4)-c4c(O)cc(O)cc4[C@@H](C(=O)O)NC3=O)O[C@H](CO)[C@@H](O)[C@@H]2O)O[C@@H](C)[C@@H]1O` [Compound 41]: 0.18 mg/kg/2, 0.32 mg/kg/2 and 1.22 mg/kg/2.
The matching figures for `CN[C@H](CC(C)C)C(=O)N[C@H]1C(=O)N[C@@H](CC(N)=O)C(=O)N[C@H]2C(=O)N[C@H]3C(=O)N[C@H](C(=O)N[C@H](C(=O)O)c4cc(O)cc(O)c4-c4cc3ccc4O)[C@H](O[C@H]3C[C@](C)(NCCc4ccccc4)[C@@H](O)[C@H](C)O3)c3ccc(c(Cl)c3)Oc3cc2cc(c3O[C@@H]2O[C@H](CO)[C@@H](O)[C@H](O)[C@H]2O[C@H]2C[C@](C)(N)[C@@H](O)[C@H](C)O2)Oc2ccc(cc2Cl)[C@H]1O` [Compound 44]: 0.125 mg/kg/2, 0.2 mg/kg/2 and 0.3 mg/kg/2.
The matching figures for `CNC(CC(C)C)C(=O)NC1C(=O)NC(CC(N)=O)C(=O)NC2C(=O)NC3C(=O)NC(C(=O)NC(C(=O)O)c4cc(O)cc(O)c4-c4cc3ccc4O)C(OC3CC(C)(NCC(c4ccccc4)c4ccccc4)C(O)C(C)O3)c3ccc(c(Cl)c3)Oc3cc2cc(c3OC2OC(CO)C(O)C(O)C2OC2CC(C)(N)C(O)C(C)O2)Oc2ccc(cc2Cl)C1O` (stereo not shown) [Compound 46]: 0.14 mg/kg/2, 0.22 mg/kg/2 and 0.75 mg/kg/2.
Regarding `CNC(CC(C)C)C(=O)NC1C(=O)NC(CC(N)=O)C(=O)NC2C(=O)NC3C(=O)NC(C(=O)NC(C(=O)O)c4cc(O)cc(O)c4-c4cc3ccc4O)C(OC3CC(C)(NCCCc4ccccc4)C(O)C(C)O3)c3ccc(c(Cl)c3)Oc3cc2cc(c3OC2OC(CO)C(O)C(O)C2OC2CC(C)(NCCCc3ccccc3)C(O)C(C)O2)Oc2ccc(cc2Cl)C1O` (stereo not shown) [Compound 50], the ED50 in the test on Streptococcus pyogenes is 0.6 mg/kg/2; in the test with Streptococcus pneumoniae it was 1.02 mg/kg/2; in the test on Staphylococcus aureus, above 5.0 mg/kg/2.
In the case of `CC(C)CC(C(=O)NC1C(=O)NC(CC(N)=O)C(=O)NC2C(=O)NC3C(=O)NC(C(=O)NC(C(=O)O)c4cc(O)cc(O)c4-c4cc3ccc4O)C(OC3CC(C)(N)C(O)C(C)O3)c3ccc(c(Cl)c3)Oc3cc2cc(c3OC2OC(CO)C(O)C(O)C2OC2CC(C)(N)C(O)C(C)O2)Oc2ccc(cc2Cl)C1O)N(C)Cc1ccccc1` (stereo not shown) [Compound 52], the ED50 in the test on Streptococcus pyogenes is reported as 0.5 mg/kg/2; in the test on Streptococcus pneumoniae it was 0.75 mg/kg/2.
Turning to `CNC(CC(C)C)C(=O)NC1C(=O)NC(CC(N)=O)C(=O)NC2C(=O)NC3C(=O)NC(C(=O)NC(C(=O)O)c4cc(O)cc(O)c4-c4cc3ccc4O)C(OC3CC(C)(NCc4ccccc4)C(O)C(C)O3)c3ccc(c(Cl)c3)Oc3cc2cc(c3OC2OC(CO)C(O)C(O)C2OC2CC(C)(NCc3ccccc3)C(O)C(C)O2)Oc2ccc(cc2Cl)C1O` (stereo not shown) [Compound 53], the ED50 turned out to be 0.2 mg/kg/2 with Streptococcus pyogenes, 0.18 mg/kg/2 with Streptococcus pneumoniae and 1.25 mg/kg/2 in the test with Staphylococcus aureus.
In the case of `CCN(CC)c1ccc(CNC2(C)CC(OC3c4ccc(c(Cl)c4)Oc4cc5cc(c4OC4OC(CO)C(O)C(O)C4OC4CC(C)(NCc6ccc(N(CC)CC)cc6)C(O)C(C)O4)Oc4ccc(cc4Cl)C(O)C(NC(=O)C(CC(C)C)NC)C(=O)NC(CC(N)=O)C(=O)NC5C(=O)NC4C(=O)NC3C(=O)NC(C(=O)O)c3cc(O)cc(O)c3-c3cc4ccc3O)OC(C)C2O)cc1` (stereo not shown) [Compound 57], in the test with Streptococcus pyogenes, the ED50 is on record as below 0.62 mg/kg/2.
